88 compounds from a melting point compilation (Tetko et al.; mined from patent text by program, amines drawn as free bases though some values may be those of a salt) can be followed below.

As to `CS(=O)(=O)Nc1ccc(C#CCCN2CC=C(c3ccccc3)CC2)nc1`, the melting point lay in the range of 138 to 139 °C. To `CCOC(=O)c1cnn(-c2ccc(Oc3ccc(C)cc3O)cc2)c1N` belongs 142 to 144 °C. In turn, `Cn1nc2c(cc1=O)CCc1cc(O)ccc1-2` displayed a melting point greater than 300 °C. `O=C1c2cc(O)ccc2OCN1CCO` displayed a melting point of 148 to 150 °C. Under `Cc1nc2c(CN3CCOCC3)cc(Cl)nn2c1C(=O)c1ccc(Cl)cc1F` stands 145 to 147 °C; under `CCCn1c(=O)c2[nH]c(/C=C/c3cccnc3)nc2n(CCC)c1=O`, 265 to 267 °C; under `Cc1ccc2cccc(OCc3cccc(NC(=O)CN4C(=O)c5ccccc5C4=O)c3C)c2n1`, 283 to 285 °C. Compound `O=C(c1c(F)cccc1F)N1CN(c2ccccc2)CN(c2ccc(Cl)cc2)C1=O` came in with a melting point of 166 to 168 °C. To `CC(C)(C)c1cc(-c2ccccc2)c(Oc2cccc(C#N)c2C#N)c(-c2ccccc2)c1` belongs 189 to 192 °C; to `O=C(NCc1ccc(Cl)cc1)c1cnc2cc(CCCO)ccc2c1O`, 166 to 168 °C. To `Oc1ccc2c(c1)ncn2-c1ccc2cccc(Cl)c2n1` belongs greater than 250 °C. `COCOc1ccc(CCCOc2nn(Cc3ccccc3)cc2CC(=O)O)c(Oc2ncc(C(F)(F)F)cc2Cl)c1` had a melting point of 108 to 109 °C. To `Cc1ccc(S(=O)(=O)OCCCCn2c3c(c4ccccc4c2=O)C(=O)c2ccccc2-3)cc1` belongs 160 to 163 °C; to `COc1cc(OCc2ccccn2)ccc1/C=C/c1cc(/C=C/c2ccc3cc[nH]c3c2)n(C(C)O)n1` (stereo not drawn), 94 to 97 °C; to `NC(=O)c1cc2c(Oc3ccc(Cl)c(F)c3)cncc2s1`, 227 to 228 °C.

`CCOC(=O)c1c(C(F)(F)F)nc(C(F)(F)Cl)c(C(=O)OC)c1N1CCCC1` returned a melting point of 72 to 73.5 °C. Under `C#CCC(C(=CCl)c1cccnc1)c1ccc(Cl)cc1Cl` (stereo not drawn) stands 87 to 88 °C; under `CC1=C2CCC3C(CCC4(C)C3CCC4(C)O)C2(C)CCC1=O` (stereo not drawn), 141 to 144 °C. With `COc1ccc(-c2cc(C(=O)Nc3ccccc3)c(=O)n(CC3CC3)n2)cc1`, the melting point was 163 °C. Consider `CCOC(=O)C(Cc1ccc(C(F)(F)F)cc1)C(=O)c1ccncc1` (stereo not drawn), for which the melting point was in the range of 64 to 65 °C. Compound `O=C1CC(=O)OC(CCl)C1` (single isomer, unassigned; (-)) returned a melting point of 98 to 99 °C. In turn, `COCCN(C)Cc1c(-c2ccc(NC(=O)NOC)cc2)sc2c1c(=O)n(-c1ccc3c(c1)OCCO3)c(=O)n2Cc1c(F)cccc1F` gave a melting point of 155 to 156 °C. To `CC(=O)OCc1cccc(C(C)C)c1NC(=O)CC1c2ccccc2Oc2ccccc21` belongs 155 to 156 °C; to `Cc1cccc(NC(=O)C(C)Oc2ccc(Oc3ccc(C#N)cc3)cc2)n1` (stereo not drawn), 109 to 111 °C.

`O=C(CNc1ccccc1)Nc1c(Cl)ccc2nc(N3CC[C@@H](O)C3)ccc12`: the melting point was in the range of 230 to 232 °C. Under `CCOC(=O)Nc1cc(O)c(Cl)cc1F` stands 152 to 154 °C; under `C=CC[N+]([O-])(CCCCCCCCCCCCCCCCCC)CCCCCCCCCCCCCCCCCC`, 59 to 64 °C. For the compound `COc1cc2c(c(OC)c1OC)C(C#N)N(C(=O)c1ccccc1)C=C2` (stereo not drawn), the melting point lay within 158 to 160 °C. To `Cn1ncnc1COc1nn2c(-c3ccoc3)nncc2c1-c1ccccc1F` belongs 148 °C. To `Cc1cccc(NC(=O)NCC(=O)N(c2ccccc2)C(C(=O)N2CCCC2)c2ccccc2)c1` (racemic) belongs 138 °C.

For `CN1CCN(c2ccccc2C(F)(F)F)C(C2=NCCN2)C1` (stereo not drawn), the melting point is 163 to 165 °C. To `CC(C)c1ccc(C(=O)N2CCCCC2)c(NS(=O)(=O)c2cccc3nsnc23)c1` belongs 125 to 127 °C; to `CC1(C(O)C(N)=O)CC=CCC1` (stereo not drawn), 102 to 110 °C. As to `CCOCc1cnn2c(-c3cccc(C(F)(F)F)c3)ccnc12`, the melting point lay within 110 to 111 °C. Under `CCOC(=O)CNC(=O)CN(C(=O)c1ccc(Cl)cc1)c1c(C)cccc1C` stands 127 to 129 °C; under `COC(=O)c1cc2ccc(OCc3ccccc3)cc2oc1=O`, 129 to 130 °C; under `CC(C)n1cc(-c2nc(C#N)c(N)nc2-c2ccc(F)c(F)c2)ccc1=O`, 180 °C. Compound `CN(C)CCCNC(=O)c1cccc(-c2nnc(CSCCOc3ccccc3)o2)c1` gave a melting point of 88 to 90 °C.

In the case of `CCCc1nc2c(N)nc(C)c(C)c2n1C1(OC)CCCCC1`, the melting point is 192 to 193 °C. Under `CCCNC(=S)Nc1ccc(Oc2nc(OC)cc(OC)n2)c(C(=O)OC)n1` stands 218 to 220 °C. In turn, `COc1ccc2c(=O)cc(C(OC)OC)oc2c1` had a melting point of 99 to 101 °C. On to `O=C(O)C1(C(=O)O)CC(C2CCC2)C1`, for which the melting point fell in the range of 150 to 151 °C. To `CCNC(=NC#N)NCC(=O)N(C)c1ccc(Cl)c(COc2cccn3c(Br)c(C)nc23)c1Cl` belongs greater than 250 °C; to `CC(C)(C)C(=O)Nc1ccc2cc3c(cc2c1)CCCC3`, 202 to 204 °C. To `CN(N(S(C)(=O)=O)S(C)(=O)=O)S(C)(=O)=O` belongs 123 to 124 °C.

In turn, `Cc1cc(-c2cc(C(F)(F)F)n3ncc(-c4ccncc4)c3n2)ccc1Cl` displayed a melting point of 247 °C. Turning to `O=c1[nH]c2occc2c2ccccc12`, the melting point was in the range of 216 to 218 °C. To `CC1(C)CN=C(c2cnc(S(C)(=O)=O)c(Cl)c2)O1` belongs 102 to 105 °C; to `CCC1CC(=O)N(Cc2cccc(NC(C)=O)c2)N=C1c1ccc(OC)c(OC2CCCC2)c1` (stereo not drawn), 70 °C; to `O=C1CCCCc2ccc([N+](=O)[O-])cc21`, 88 to 89 °C.

In turn, `CCCc1cn2ccccc2c1C(=O)c1ccc(OS(=O)(=O)c2ccc(C)cc2)cc1` registered a melting point of 95 to 97 °C. Take `O=C(O)[C@@H]1CC(=Cc2ccccc2)CN1C(=O)OCc1ccccc1`: the melting point is 142 to 150 °C.

As to `Cc1cccc(C)c1NC(=O)Cn1ccnc1`, the melting point fell in the range of 160 to 162 °C. To `CC(=O)Nc1nc2ccc(OC(C)=O)cc2n1S(=O)(=O)N(C)C` belongs 164 to 166 °C; to `Cc1cc(Nc2ccnc(Nc3ccc(S(=O)(=O)N(Cc4ccco4)C4CCN(C)CC4)cc3)n2)ccc1F`, 184 °C. In turn, `CC(C)(C)c1ccc(C(N)=O)c(NC(=O)Nc2cccnc2)c1` yielded a melting point of 188 to 189 °C.

Take `CC(=O)c1c(-c2ccccc2)nn2ccccc12`: the melting point fell in the range of 84 to 85 °C.

In turn, `Fc1ccc2c(c1)Sc1ccc(C(F)(F)F)cc1C2=C1CCNCC1` gave a melting point of 125 to 130 °C. To `O=[N+]([O-])c1ccc(OC(c2ccc(F)cc2)(c2ccc(F)cc2)c2nccs2)cc1C(F)(F)F` belongs 133 to 134 °C; to `c1ccc(N=C2CCCc3ccccc32)cc1`, 53 °C. Under `COc1ccc(Cl)nc1N` stands 134 to 135 °C. Under `Nc1cc(-c2ccccc2)ccc1Cl` stands 91 to 92.5 °C; under `COC(=O)C(Oc1cccc2ccccc12)c1ccc(Oc2ccc(Cl)cc2)cc1` (stereo not drawn), 107 to 110 °C. Consider `CS(=O)(=O)c1ccc(-n2cc(-c3ccc(OC(F)(F)F)cc3)nc2-c2ccc(Cl)cc2)cc1`, for which the melting point fell in the range of 95 to 97 °C. Under `CC12CC(=O)C3C(CCC4CC=CCC43C)C1CCC2=O` (stereo not drawn) stands 188 to 192 °C. With `Cc1ccc2c(c1)NC(NC(C)C)=NS2(=O)=O`, the melting point was 137 to 139 °C. Regarding `CCCCCCCCCCC(O)C(O)CNCc1ccccc1` (stereo not drawn), the melting point was in the range of 52.6 to 53 °C. In turn, `COc1cc(-c2c(Cl)c(CNC(C)(C)C)nc3sc4c(c23)CCN(C(=O)c2ccccc2)C4)ccc1OC(C)C` showed a melting point of 165 to 166 °C. `CSC(C)(C(=O)O)c1ccc(CC(C)C)cc1` (stereo not drawn) displayed a melting point of 89 to 92 °C. With `CNC(C)=C(C(=O)OC)C(=O)c1ccccc1`, the melting point fell in the range of 75 to 77 °C. Under `CC(C)(C)N(CC(=O)Nc1n[nH]c(=S)s1)C(=O)C(Cc1ccc(OCc2ccccc2)cc1)NC(=O)OCc1ccccc1` (stereo not drawn) stands 146 °C. As for `Cc1cccc2c(=O)[nH]c(N3CCN(CCCCN4CCN(C)CC4)CC3)cc12`, the melting point is 202 to 203 °C.

The compound `Cc1ccccc1-c1cc2ncccc2c(=O)n1C` gave a melting point of 104 to 106 °C.

In turn, `O=C(CCCCCCn1ccc2ccc([N+](=O)[O-])cc21)NS(=O)(=O)c1ccccc1` came in with a melting point of 117 to 121 °C. With `CC(=O)N1C(=O)C(C(=O)c2cccnc2)c2ccccc21` (stereo not drawn), the melting point lay in the range of 141 to 142 °C.

The compound `CS(=O)(=O)c1cc(C(=O)O)c(Cl)cc1Oc1ccccc1` displayed a melting point of 200 °C. In the case of `O=C(NO)C(CC(=O)N1CCOCC1)NS(=O)(=O)c1ccc(-c2ccc(Cl)cc2)cc1` (stereo not drawn), the melting point lay in the range of 139 to 141 °C. Under `Nc1cccc(Cl)c1O` stands 113 to 114 °C; under `CCOC(=O)C=Cc1cc(C=CC(=O)OCC)cc(Cc2cccnc2)c1`, 94 to 96 °C; under `O=c1cc(-c2ccccc2)sc2c1[nH]c1ccccc12`, 271 to 272 °C. To `COC(=O)Nc1ccc(-c2ncn(-c3ccc(OC(F)(F)C(F)(F)F)cc3)n2)cc1` belongs 183 to 184 °C. Compound `NC(=O)c1nccn1C1Cc2cc(-n3ccnc3)ccc2C1=O` (stereo not drawn) yielded a melting point of 140 °C. `O=c1[nH]c2ccccc2cc1CN1CC=C(/C=C/c2ccccc2)CC1` showed a melting point of 258 to 260 °C. Under `Cc1cc(-c2ccc(O)cc2)ccc1C=NO` stands 195 to 197 °C. The compound `CS(=O)(=O)c1ccc(S(=O)(=O)N2CCn3c(c(C(N)=O)c(Cl)c3-c3ccccc3)C2)cc1` displayed a melting point of 258 to 259 °C. On to `CC(=O)c1c(C)[nH]c(C2CCCC2)c1C`, for which the melting point lay in the range of 162 to 164 °C. To `COC(=O)C(Cc1ccc([N+](=O)[O-])c(OCc2ccccc2)c1)(NC(=O)OC(C)(C)C)C(=O)OC` belongs 114 to 116 °C.

Compound `COc1cc(C)cc(-c2nn(CC#N)cc2-c2cc(NC[C@H](C)O)nc(Cl)n2)c1` gave a melting point of 197 °C.
